# Results published in patent US8309546B2, “Morpholinopurine derivatives” (Daiichi Sankyo Company, Limited, priority 2008, dated 2012).
# Assays:
# [1] = biological target: T1, human mTOR (His-tagged mTOR (1362C)) (Homo sapiens, UniProt P42345); test: mTOR kinase activity inhibition assay; format: biochemical; conditions: HTRF, read-out: IC50 against mTOR
# T1 construct: the 1362 to 2549 amino acid portion on the C terminus side of human mTOR; His tag (N); made in house
# Method in brief: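 Crude His-tagged mTOR (aa 1362–2549) from stable HEK293 cells, with 8 μg/ml biotinylated peptide in 50 mM HEPES pH 7.5, 20 mM MnCl2; compound diluted in 20 μM ATP solution, reaction 3 h at room temperature. Phospho-peptide detected by HTRF (anti-phospho-S6K Thr389 cryptate/streptavidin-XL665, overnight at 4°C), 665/620 nm ratio. IC50 derived from curve fit of % inhibition.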
# [2] = test system: S6 (serine 235 and 236) phosphorylation in AN3CA tumor; test: S6 phosphorylation inhibition assay in xenograft; format: in vivo, female nude mouse; conditions: Mus musculus, AN3-CA, oral, 6 hr after dosing
# Protocol: A tumor section was prepared from a human endometrial cancer cell strain AN3CA tumor mass formed in a female nude mouse as subcutaneously transplanted tumor and a xenograft model was prepared by subcutaneously transplanting the tumor to a female nude mouse. The test compound at a predetermined concentration was orally administered. After a predetermined time, the anesthetized mouse was exsanguinated to death, and a tumor mass was isolated. The tumor mass was crushed using a lysis buffer containing inhibitors of proteases and dephosphorylating enzymes (Cell Signaling Technology, Inc.) and the supernatant was separated by centrifugation to obtain a tumor extract. The protein content of the tumor extract was measured using DC Protein Assay Kit (Bio-Rad Laboratories, Inc.) and phosphorylation conditions of Akt (threonine 308) and S6 (serine 235 and 236) were analyzed by a usual technique of western blotting using tumor extracts containing the same amount of protein. The primary antibody and the secondary antibody used for detecting each molecule were rabbit anti-phospho-Akt(T308) antibody and HRP-labeled goat anti-rabbit IgG antibody or mouse anti-phospho-S6(S235/236) antibody and HRP-labeled sheep anti-mouse IgG antibody.
# The signal intensity detected using an image analyzer Typhoon 9400 (GE Healthcare) was quantified, and the phosphorylation inhibition rate (%) was calculated by the following formula. Phosphorylation inhibitory activity (%) of Akt and S6 after treatment with test compound=100−100×(B/A) A: Signal intensity derived from phosphorylated protein in tumor mass isolated from mouse untreated with test compound B: Signal intensity derived from phosphorylated protein in tumor mass isolated from mouse treated with test compound
# T1 sequence (P42345 1362-2549): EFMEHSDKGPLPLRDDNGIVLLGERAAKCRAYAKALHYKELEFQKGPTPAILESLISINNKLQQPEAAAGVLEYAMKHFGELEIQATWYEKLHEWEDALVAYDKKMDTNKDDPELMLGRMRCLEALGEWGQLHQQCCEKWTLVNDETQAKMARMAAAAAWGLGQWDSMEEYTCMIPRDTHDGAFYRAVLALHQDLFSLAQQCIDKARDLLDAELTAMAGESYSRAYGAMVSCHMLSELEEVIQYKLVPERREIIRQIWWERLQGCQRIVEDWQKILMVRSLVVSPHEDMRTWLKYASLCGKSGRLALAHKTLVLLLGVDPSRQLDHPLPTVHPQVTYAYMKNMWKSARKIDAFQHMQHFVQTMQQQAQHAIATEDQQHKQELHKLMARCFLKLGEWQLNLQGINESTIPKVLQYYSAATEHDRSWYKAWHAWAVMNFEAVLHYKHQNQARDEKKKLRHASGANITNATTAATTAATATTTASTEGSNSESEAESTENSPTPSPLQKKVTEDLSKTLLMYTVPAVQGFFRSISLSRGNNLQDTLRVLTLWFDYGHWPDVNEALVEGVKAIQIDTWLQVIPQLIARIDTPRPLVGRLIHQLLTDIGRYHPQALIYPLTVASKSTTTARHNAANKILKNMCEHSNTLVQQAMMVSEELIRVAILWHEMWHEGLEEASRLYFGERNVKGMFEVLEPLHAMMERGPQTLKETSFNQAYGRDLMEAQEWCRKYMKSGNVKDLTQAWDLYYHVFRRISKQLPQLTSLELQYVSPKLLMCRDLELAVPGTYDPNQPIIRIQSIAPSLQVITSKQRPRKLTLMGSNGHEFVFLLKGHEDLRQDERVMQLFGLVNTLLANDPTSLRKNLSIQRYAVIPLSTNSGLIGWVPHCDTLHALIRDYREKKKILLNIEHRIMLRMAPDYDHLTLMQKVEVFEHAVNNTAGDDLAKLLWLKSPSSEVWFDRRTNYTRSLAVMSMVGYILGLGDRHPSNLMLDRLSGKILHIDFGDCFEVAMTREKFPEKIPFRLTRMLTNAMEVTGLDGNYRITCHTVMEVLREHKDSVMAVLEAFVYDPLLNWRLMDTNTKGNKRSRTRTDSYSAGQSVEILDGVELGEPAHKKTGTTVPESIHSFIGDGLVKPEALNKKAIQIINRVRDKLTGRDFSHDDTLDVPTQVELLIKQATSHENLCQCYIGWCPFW
SMILES,IC50 [1] [nM],inhibition at 10 mg/kg [2] [%]
"C[C@H](O)CC(=O)N1CCN(c2nc3c(N4CCOCC4)nc(-c4cnc(N)nc4)nc3n2CC(F)(F)F)CC1 [Example 69, (2S)-4-{4-[2-(2-Aminopyrimidin-5-yl)-6-morpholin-4-yl-9-(2,2,2-trifluoroethyl)-9H-purin-8-yl]piperazin-1-yl}-4-oxobutan-2-ol]",< 10,> 90
"C[C@@H](O)CC(=O)N1CCN(c2nc3c(N4CCOCC4)nc(-c4cnc(N)nc4)nc3n2CC(F)(F)F)CC1 [Example 70, (2R)-4-{4-[2-(2-Aminopyrimidin-5-yl)-6-morpholin-4-yl-9-(2,2,2-trifluoroethyl)-9H-purin-8-yl]piperazin-1-yl}-4-oxobutan-2-ol]",< 10,> 90
"Nc1ncc(-c2nc(N3CCOCC3)c3nc(N4CCN(C=O)CC4)n(CC(F)(F)F)c3n2)cn1 [Example 71, 4-[2-(2-Aminopyrimidin-5-yl)-6-morpholin-4-yl-9-(2,2,2-trifluoroethyl)-9H-purin-8-yl]piperazine-1-carboaldehyde]",< 10,> 90
"CC[C@H]1CN(c2nc3c(N4CCOCC4)nc(-c4cnc(N)nc4)nc3n2CC(F)(F)F)CCN1C(C)=O [Example 75, 5-{8-[(3S)-4-Acetyl-3-ethylpiperazin-1-yl]-6-morpholin-4-yl-9-(2,2,2-trifluoroethyl)-9H-purin-2-yl}pyrimidin-2-amine]",< 10,> 90
"CC[C@H]1CN(c2nc3c(N4CCOCC4)nc(-c4cnc(N)nc4)nc3n2CC(F)(F)F)CCN1S(C)(=O)=O [Example 76, 5-{8-[(3S)-3-Ethyl-4-(methylsulfonyl)piperazin-1-yl]-6-morpholin-4-yl-9-(2,2,2-trifluoroethyl)-9H-purin-2-yl}pyrimidin-2-amine]",< 10,> 90
"CC[C@H]1CN(c2nc3c(N4CCOCC4)nc(-c4cnc(N)nc4)nc3n2CC(F)(F)F)CCN1C(=O)[C@H](C)O [Example 77, (2S)-1-{(2S)-4-[2-(2-Aminopyrimidin-5-yl)-6-morpholin-4-yl-9-(2,2,2-trifluoroethyl)-9H-purin-8-yl]-2-ethylpiperazin-1-yl}-1-oxopropan-2-ol]",10 to 30,> 90
CC[C@@H]1CN(c2nc3c(N4CCOCC4)nc(-c4cnc(N)nc4)nc3n2CC(F)(F)F)CCN1C(=O)[C@H](C)O [Example 79],< 10,> 90
"CC(C)Cn1c(N2CCN(C(=O)C[C@@H](C)O)CC2)nc2c(N3CCOCC3)nc(-c3cnc(N)nc3)nc21 [Example 81, (2R)-4-{4-[2-(2-Aminopyrimidin-5-yl)-9-isobutyl-6-morpholin-4-yl-9H-purin-8-yl]piperazin-1-yl}-4-oxobutan-2-ol]",10 to 30,> 90
"CC(C)Cn1c(N2CCN(C(=O)C[C@H](C)O)CC2)nc2c(N3CCOCC3)nc(-c3cnc(N)nc3)nc21 [Example 82, (2S)-4-{4-[2-(2-Aminopyrimidin-5-yl)-9-isobutyl-6-morpholin-4-yl-9H-purin-8-yl]piperazin-1-yl}-4-oxobutan-2-ol]",10 to 30,> 90
"CC(C)Cn1c(N2CCN(C(=O)C[C@@H](C)O)[C@@H](C)C2)nc2c(N3CCOCC3)nc(-c3cnc(N)nc3)nc21 [Example 83, (2R)-4-{(2S)-4-[2-(2-Aminopyrimidin-5-yl)-9-isobutyl-6-morpholin-4-yl-9H-purin-8-yl]-2-methylpiperazin-1-yl}-4-oxobutan-2-ol]",< 10,> 90
"CC(C)Cn1c(N2CCN(C(=O)C[C@@H](C)O)[C@H](C)C2)nc2c(N3CCOCC3)nc(-c3cnc(N)nc3)nc21 [Example 84, (2R)-4-{(2R)-4-[2-(2-Aminopyrimidin-5-yl)-9-isobutyl-6-morpholin-4-yl-9H-purin-8-yl]-2-methylpiperazin-1-yl}-4-oxobutan-2-ol]",10 to 30,> 90
"CC(C)Cn1c(N2CCN(C(=O)C[C@H](C)O)[C@@H](C)C2)nc2c(N3CCOCC3)nc(-c3cnc(N)nc3)nc21 [Example 85, (2S)-4-{(2S)-4-[2-(2-Aminopyrimidin-5-yl)-9-isobutyl-6-morpholin-4-yl-9H-purin-8-yl]-2-methylpiperazin-1-yl}-4-oxobutan-2-ol]",< 10,> 90
"CC(C)Cn1c(N2CCN(C(=O)C[C@H](C)O)[C@H](C)C2)nc2c(N3CCOCC3)nc(-c3cnc(N)nc3)nc21 [Example 86, (2S)-4-{(2R)-4-[2-(2-Aminopyrimidin-5-yl)-9-isobutyl-6-morpholin-4-yl-9H-purin-8-yl]-2-methylpiperazin-1-yl}-4-oxobutan-2-ol]",10 to 30,> 90
"C[C@H](O)C(=O)N1CCN(c2nc3c(N4CCOCC4)nc(-c4cnc(N)nc4)nc3n2CC2CC2)CC1 [Example 88, (2S)-1-{4-[2-(2-Aminopyrimidin-5-yl)-9-(cyclopropylmethyl)-6-morpholin-4-yl-9H-purin-8-yl]piperazin-1-yl}-1-oxopropan-2-ol]",30 to 100,70 to 90
"CC(C)Cn1c(N2CCN(C(=O)CO)CC2)nc2c(N3CCOCC3)nc(-c3cnc(N)nc3)nc21 [Example 89, 2-{4-[2-(2-Aminopyrimidin-5-yl)-9-isobutyl-6-morpholin-4-yl-9H-purin-8-yl]piperazin-1-yl}-2-oxoethanol]",10 to 30,70 to 90
"CC(C)Cn1c(N2CCN(C=O)CC2)nc2c(N3CCOCC3)nc(-c3cnc(N)nc3)nc21 [Example 90, 4-[2-(2-Aminopyrimidin-5-yl)-9-isobutyl-6-morpholin-4-yl-9H-purin-8-yl]piperazine-1-carboaldehyde]",10 to 30,> 90
"C[C@H](O)C(=O)N1CCN(c2nc3c(N4CCOCC4)nc(-c4cnc(N)nc4)nc3n2CC2CC2)C[C@@H]1C [Example 92, (2S)-1-{(2S)-4-[2-(2-Aminopyrimidin-5-yl)-9-(cyclopropylmethyl)-6-morpholin-4-yl-9H-purin-8-yl]-2-methylpiperazin-1-yl}-1-oxopropan-2-ol]",10 to 30,> 90
CC(C)Cn1c(N2CCN(C(=O)[C@@H](C)O)CC2)nc2c(N3CCOCC3)nc(-c3cnc(N)nc3)nc21 [Example 93],10 to 30,> 90
"C[C@H](O)C(=O)N1CCN(c2nc3c(N4CCOCC4)nc(-c4cnc(N)nc4)nc3n2CC2CC2)C[C@H]1C [Example 95, (2S)-1-{(2R)-4-[2-(2-Aminopyrimidin-5-yl)-9-(cyclopropylmethyl)-6-morpholin-4-yl-9H-purin-8-yl]-2-methylpiperazin-1-yl}-1-oxopropan-2-ol]",10 to 30,70 to 90
"CC(=O)N1CCN(c2nc3c(N4CCOCC4)nc(-c4cnc(N)nc4)nc3n2CC2CC2)C[C@@H]1C [Example 96, 5-{8-[(3S)-4-Acetyl-3-methylpiperazin-1-yl]-9-(cyclopropylmethyl)-6-morpholin-4-yl-9H-purin-2-yl}pyrimidin-2-amine]",< 10,> 90
"CC(=O)N1CCN(c2nc3c(N4CCOCC4)nc(-c4cnc(N)nc4)nc3n2CC2CC2)C[C@H]1C [Example 97, 5-{8-[(3R)-4-Acetyl-3-methylpiperazin-1-yl]-9-(cyclopropylmethyl)-6-morpholin-4-yl-9H-purin-2-yl}pyrimidin-2-amine]",10 to 30,70 to 90
"CC(=O)N1[C@H](C)CN(c2nc3c(N4CCOCC4)nc(-c4cnc(N)nc4)nc3n2CC2CC2)C[C@@H]1C [Example 98, 5-{8-[4-Acetyl-cis-3,5-dimethylpiperazin-1-yl]-9-(cyclopropylmethyl)-6-morpholin-4-yl-9H-purin-2-yl}pyrimidin-2-amine]",< 10,> 90
"CC(C)Cn1c(N2CCN(C=O)[C@H](C)C2)nc2c(N3CCOCC3)nc(-c3cnc(N)nc3)nc21 [Example 100, (2R)-4-[2-(2-Aminopyrimidin-5-yl)-9-isobutyl-6-morpholin-4-yl-9H-purin-8-yl]-2-methylpiperazine-1-carboaldehyde]",10 to 30,> 90
"CC(=O)N1CCN(c2nc3c(N4CCOCC4)nc(-c4cnc(N)nc4)nc3n2CC(C)C)C[C@@H]1C [Example 101, 5-{8-[(3S)-4-Acetyl-3-methylpiperazin-1-yl]-9-isobutyl-6-morpholin-4-yl-9H-purin-2-yl}pyrimidin-2-amine]",< 10,> 90
"CC(C)Cn1c(N2CCN(C=O)[C@@H](C)C2)nc2c(N3CCOCC3)nc(-c3cnc(N)nc3)nc21 [Example 102, (2S)-4-[2-(2-Aminopyrimidin-5-yl)-9-isobutyl-6-morpholin-4-yl-9H-purin-8-yl]-2-methylpiperazine-1-carboaldehyde]",< 10,> 90
